The data set deals with mouse embryonic stem cells. Kind of data set: MTT cell viability assay of tert-butyl hydroperoxide oxidative stress-induced cytotoxicity in mouse embryonic stem cells. It is filed as cell-based. The following applies: for viability at 0.1 µM / viability at 0.5 µM / viability at 1 µM: Mus musculus, Embryonic stem cell, read-out: Ave. Cell Viability (%). As for the experimental part:
Oxidative stress and related free radical damage can be induced in cells, including stem cells, by exposing the cells to tert-butyl hydroperoxide in the incubation medium. Decomposition of the peroxide over a period of time leads to a steady generation of reactive oxygen species. This in turn triggers a cascade of free radical-mediated events that eventually leads to irreversible damage and ultimately cell death as the natural antioxidant defences are overwhelmed.
The extent of cytotoxicity induced by peroxide exposure can be quantified using a number of well-documented assays, including the MTT protocol. This is a colorometric assay that measures the reduction of MTT to formazan, a process that can only occur when cells are viable. Thus, by comparing the amount of formazan produced in control cells, against cells treated with a cytotoxic agent, such as tert-butyl hydroperoxide, the reduction in cell viability induced by the agent can be measured.
The assay can be further extended to determine the effectiveness of compounds to provide protection against cytotoxic agents. In the case of the novel antioxidants, the subject of this patent, this can be achieved by pre-incubation of the cells with the antioxidant agent prior to induction of oxidative stress by tert-butyl hydroperoxide. Thus a comparison of the amount of formazan produced by control cells against cells with the cytotoxic peroxide present, plus or minus pre-incubation with the novel antioxidant, can determine the extent by which the compound can retain cell viability.
A 96-well plate was seeded with approximately 20,000 mouse embryonic stem cells per well and left to grow at 37° C. (5% CO2) overnight. Antioxidants, denoted as Exp.1, Exp.2 and Exp.3, were dissolved in DMSO and added to the wells in triplicate 30 min before induction of oxidative stress with tert-butyl hydroperoxide. The resultant concentrations of the tested antioxidants in the wells were 0.1, 0.5 and 1 μM. Controls were also initiated using cell medium (DMEM^+)/DMSO. After the 30 min pre-incubation period, tert-butyl peroxide was added to the wells to provide a final concentration of 400 μM. The plated cells were returned to the incubator (37° C.) for 90 min. After this period, 20 μL of the MTT reagent solution was added to all of the wells. The plate was then further incubated for a further 3 hours. The supernatant was removed from the wells and 200 μl DMSO added to all wells to solubilise reduced MTT (formazan). The plate was protected from light and shaken for 10 min. The supernatant was removed from the wells and aliquoted into a new 96-well plate for the colorometric measurements. Absorbance was determined at 540 nm.
The average corrected absorbance. (0.737) for the DMEM^+ control (which contained no antioxidant compounds or tert-butyl hydroperoxide) represented the 100% viability benchmark. Comparison of the corrected absorbances in the various well treatment regimes relative to that of the DMEM^+ control enabled the resultant effects on cell viability to be calculated. tBHP=tert-butyl hydroperoxide.
For orientation: Tetrazolium dyes change colour on reduction, which living cells bring about.

These results are taken from patent publication US8188144B2, “In vitro preservation of living animal cells and compounds suitable for use in the preservation of living animal cells” (Antoxis Limited, priority 2007, dated 2012).

As for `CCCCCCCCCCc1ccc2c(=O)c(O)c(-c3cc(O)c(O)c(O)c3)oc2c1` [Exp.1], the viability (as a rule, a read-out of living cells in per cent, often relative to untreated cells) at 0.1 µM is 56.9%; the viability at 0.5 µM stood at 86.5%; the viability at 1 µM was 84.8%. Moreover, where the note is “mouse, 120 min, 1 μM”, the “Ave. Cell Viability (%)” value is recorded as 107.4%.
Regarding `CCCCCCCCCCCCc1cc(=O)c(O)c(-c2cc(O)c(O)c(O)c2)o1` [Exp.2], the viability at 0.1 µM is 60.5%, the viability at 0.5 µM is 94.8% and the viability at 1 µM turned out to be 96.9%. Moreover, the “Ave. Cell Viability (%)” value (mouse, 120 min, 1 μM) was 104.1%.
`CCCCCCCCc1cc(=O)c(O)c(-c2cc(O)c(O)c(O)c2)o1` [Exp.3]: the viability at 0.1 µM turned out to be 34.4%, the viability at 0.5 µM was 55.5% and the viability at 1 µM was 70.4%.
On to `CC(C)(C)OO` [tBHP, tert-butyl hydroperoxide, reference compound], for which the “Ave. Cell Viability (%)” value stood at 37.0% (400 μM tBHP alone, no antioxidant, 90 min, relative to DMEM+ control = 100%) and 37% (400 μM tBHP alone, no antioxidant, 90 min, relative to DMEM+ control = 100%, listed as tert-butyl hydroperoxide).
